Common to all, as to test: AlphaScreen proximity-based integrin binding assay with TGF-b1 LAP
What all share (settings): values given as ranges

One assay addresses human integrin αVβ1 (Homo sapiens, UniProt P05556+P06756). In a few lines:
(§1)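 Purified human integrin incubated with compound, TGF-b1 LAP, biotinylated anti-LAP antibody and acceptor beads for 2 h, then streptavidin donor beads 30 min, room temperature, in 50 mM Tris-HCl pH 7.5, 0.1% BSA, 1 mM CaCl2/MgCl2. AlphaScreen signal (680 nm excitation, 520-620 nm emission); IC50 by four-parameter fit.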

The target in the next assay is human integrin αVβ6 (Homo sapiens, UniProt P06756+P18564). In a few lines:
as §1

A further assay has as its target human integrin αVβ8 (Homo sapiens, UniProt P06756+P26012). In a few lines: as §1

Chain of human integrin αVβ1 (P06756 31-992 limits assumed): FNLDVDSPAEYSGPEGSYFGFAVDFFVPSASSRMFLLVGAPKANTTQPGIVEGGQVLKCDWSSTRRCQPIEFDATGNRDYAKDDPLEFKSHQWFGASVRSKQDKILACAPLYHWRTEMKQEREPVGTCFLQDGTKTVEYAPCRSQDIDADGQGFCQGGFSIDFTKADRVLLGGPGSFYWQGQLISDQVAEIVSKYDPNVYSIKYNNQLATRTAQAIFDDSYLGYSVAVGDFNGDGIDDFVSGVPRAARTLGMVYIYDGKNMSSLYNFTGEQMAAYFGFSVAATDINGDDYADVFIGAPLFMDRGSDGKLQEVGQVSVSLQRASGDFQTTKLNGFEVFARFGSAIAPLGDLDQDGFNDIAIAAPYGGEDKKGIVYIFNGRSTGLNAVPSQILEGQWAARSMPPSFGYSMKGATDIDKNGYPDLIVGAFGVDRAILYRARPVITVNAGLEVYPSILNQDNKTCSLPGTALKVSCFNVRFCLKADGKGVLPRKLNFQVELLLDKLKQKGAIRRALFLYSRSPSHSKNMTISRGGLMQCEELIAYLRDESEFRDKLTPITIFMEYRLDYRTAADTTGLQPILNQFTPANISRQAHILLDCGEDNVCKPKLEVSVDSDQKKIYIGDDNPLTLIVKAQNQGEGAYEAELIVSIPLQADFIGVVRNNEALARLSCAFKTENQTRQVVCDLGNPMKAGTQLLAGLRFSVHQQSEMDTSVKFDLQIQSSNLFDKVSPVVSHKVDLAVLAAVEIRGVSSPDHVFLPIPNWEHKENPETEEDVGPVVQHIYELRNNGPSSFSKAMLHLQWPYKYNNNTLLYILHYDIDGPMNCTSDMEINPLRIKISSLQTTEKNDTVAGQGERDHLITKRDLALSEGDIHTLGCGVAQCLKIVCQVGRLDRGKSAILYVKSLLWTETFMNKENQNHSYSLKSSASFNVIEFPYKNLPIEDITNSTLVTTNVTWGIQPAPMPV
Chain of human integrin αVβ1 (P05556 21-728 limits assumed): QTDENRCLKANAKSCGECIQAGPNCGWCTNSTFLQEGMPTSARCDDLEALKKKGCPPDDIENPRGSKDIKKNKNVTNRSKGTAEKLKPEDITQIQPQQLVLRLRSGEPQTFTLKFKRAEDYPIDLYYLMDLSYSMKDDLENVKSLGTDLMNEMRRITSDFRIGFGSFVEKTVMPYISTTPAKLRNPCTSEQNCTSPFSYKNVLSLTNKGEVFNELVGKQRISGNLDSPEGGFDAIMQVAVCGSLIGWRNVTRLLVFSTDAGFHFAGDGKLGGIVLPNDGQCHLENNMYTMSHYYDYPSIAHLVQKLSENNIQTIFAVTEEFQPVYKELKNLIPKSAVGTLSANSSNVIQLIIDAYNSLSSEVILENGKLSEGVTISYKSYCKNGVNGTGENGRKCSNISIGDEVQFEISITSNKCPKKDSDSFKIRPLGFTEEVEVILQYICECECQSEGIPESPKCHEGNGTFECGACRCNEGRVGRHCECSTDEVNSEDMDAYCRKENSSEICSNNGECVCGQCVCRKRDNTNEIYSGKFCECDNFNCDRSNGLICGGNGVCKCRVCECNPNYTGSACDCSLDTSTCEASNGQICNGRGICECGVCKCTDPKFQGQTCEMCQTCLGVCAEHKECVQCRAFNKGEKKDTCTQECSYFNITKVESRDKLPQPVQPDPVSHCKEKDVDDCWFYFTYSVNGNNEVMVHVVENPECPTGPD
Chain of human integrin αVβ8 (P06756 31-992 limits assumed): as the sequence (P06756 31-992 limits assumed) above
Chain of human integrin αVβ8 (P26012 43-684 limits assumed): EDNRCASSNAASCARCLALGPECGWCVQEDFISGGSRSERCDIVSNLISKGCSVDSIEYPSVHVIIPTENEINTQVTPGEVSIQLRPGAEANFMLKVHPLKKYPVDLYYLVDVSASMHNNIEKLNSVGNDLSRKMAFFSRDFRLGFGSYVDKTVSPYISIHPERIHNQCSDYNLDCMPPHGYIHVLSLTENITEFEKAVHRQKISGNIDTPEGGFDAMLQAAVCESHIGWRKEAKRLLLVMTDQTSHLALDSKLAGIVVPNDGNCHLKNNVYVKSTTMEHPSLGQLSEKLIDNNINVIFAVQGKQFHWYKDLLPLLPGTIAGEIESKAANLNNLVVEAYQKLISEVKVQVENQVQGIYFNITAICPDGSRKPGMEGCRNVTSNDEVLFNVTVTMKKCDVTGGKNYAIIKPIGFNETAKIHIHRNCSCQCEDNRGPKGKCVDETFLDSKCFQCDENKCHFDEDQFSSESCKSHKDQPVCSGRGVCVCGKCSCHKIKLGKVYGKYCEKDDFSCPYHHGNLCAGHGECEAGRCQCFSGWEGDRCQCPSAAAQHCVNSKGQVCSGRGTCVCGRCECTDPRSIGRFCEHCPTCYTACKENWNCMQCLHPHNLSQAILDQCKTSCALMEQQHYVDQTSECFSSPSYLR
Chain of human integrin αVβ6 (P06756 31-992 limits assumed): as the sequence (P06756 31-992 limits assumed) above
Chain of human integrin αVβ6 (P18564 22-707 limits assumed): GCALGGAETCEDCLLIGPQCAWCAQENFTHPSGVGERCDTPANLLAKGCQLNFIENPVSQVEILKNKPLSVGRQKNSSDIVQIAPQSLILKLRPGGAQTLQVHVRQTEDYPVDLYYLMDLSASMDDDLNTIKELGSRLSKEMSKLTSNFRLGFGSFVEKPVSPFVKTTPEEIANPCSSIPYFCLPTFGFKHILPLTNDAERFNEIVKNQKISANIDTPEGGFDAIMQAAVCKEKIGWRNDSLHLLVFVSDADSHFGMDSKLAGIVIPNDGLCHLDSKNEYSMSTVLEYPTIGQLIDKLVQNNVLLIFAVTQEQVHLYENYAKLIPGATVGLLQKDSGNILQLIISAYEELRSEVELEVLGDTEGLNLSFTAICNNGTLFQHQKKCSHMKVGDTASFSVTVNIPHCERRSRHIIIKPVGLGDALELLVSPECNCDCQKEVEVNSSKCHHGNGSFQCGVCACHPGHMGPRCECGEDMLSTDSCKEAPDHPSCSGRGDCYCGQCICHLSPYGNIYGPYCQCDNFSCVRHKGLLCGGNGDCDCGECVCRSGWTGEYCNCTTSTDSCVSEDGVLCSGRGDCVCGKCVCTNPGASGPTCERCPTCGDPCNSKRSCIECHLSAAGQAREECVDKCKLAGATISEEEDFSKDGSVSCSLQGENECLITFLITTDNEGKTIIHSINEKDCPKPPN

Regarding `Cn1cnc(Cl)c1C1(C(=O)N[C@@H](CCOCCCCc2ccc3c(n2)NCCC3)C(=O)O)CC1` [Compound 80, N-(1-(4-chloro-1-methyl-1H-imidazol-5-yl)cyclopropane-1-carbonyl)-O-(4-(5,6,7,8-tetrahydro-1,8-naphthyridin-2-yl)butyl)-L-homoserine], the IC50 was less than 50 nM at human integrin αVβ1, no less than 500 nM on human integrin αVβ6 and less than 50 nM on human integrin αVβ8.
For the compound `O=C(Cc1ccccc1)N[C@@H](CCOCCCCc1ccc2c(n1)NCCC2)C(=O)O` [Compound 81, N-(2-phenylacetyl)-O-(4-(5,6,7,8-tetrahydro-1,8-naphthyridin-2-yl)butyl)-L-homoserine], the results for the 50% inhibitory concentration (IC50) on human integrin αVβ1, on human integrin αVβ6 and on human integrin αVβ8 were less than 50 nM, no less than 500 nM and 50 to 150 nM, respectively.
The matching figures for `O=C(O)[C@H](CCOCCCCc1ccc2c(n1)NCCC2)NC(=O)C1(c2ncsc2Cl)CC1` [Compound 82, N-(1-(5-chlorothiazol-4-yl)cyclopropane-1-carbonyl)-O-(4-(5,6,7,8-tetrahydro-1,8-naphthyridin-2-yl)butyl)-L-homoserine]: less than 50 nM, no less than 500 nM and less than 50 nM.
Taken in the same sequence, the figures for `O=C(O)[C@H](CCOCCCCc1ccc2c(n1)NCCC2)NC(=O)C1(C(F)F)CCOC1` (stereo partly drawn) [Compound 83, N-(3-(difluoromethyl)tetrahydrofuran-3-carbonyl)-O-(4-(5,6,7,8-tetrahydro-1,8-naphthyridin-2-yl)butyl)-L-homoserine] were less than 50 nM, 250 to 500 nM and 50 to 150 nM.
For the compound `O=C(O)[C@H](CCOCCCCc1ccc2c(n1)NCCC2)NC(=O)C1(C(F)(F)F)CCCCC1` [Compound 84, O-(4-(5,6,7,8-tetrahydro-1,8-naphthyridin-2-yl)butyl)-N-(1-(trifluoromethyl)cyclohexane-1-carbonyl)-L-homoserine], the 50% inhibitory concentration (IC50) on human integrin αVβ1 is less than 50 nM; at human integrin αVβ6, 250 to 500 nM; at human integrin αVβ8 it was less than 50 nM.
Consider `O=C(O)[C@H](CCOCCCCc1ccc2c(n1)NCCC2)NC(=O)C1(c2ccc(F)cc2)CCOCC1` [Compound 85, N-(4-(4-fluorophenyl)tetrahydro-2H-pyran-4-carbonyl)-O-(4-(5,6,7,8-tetrahydro-1,8-naphthyridin-2-yl)butyl)-L-homoserine], for which the figures for the IC50 on human integrin αVβ1, on human integrin αVβ6 and at human integrin αVβ8 were less than 50 nM, greater than 500 nM and 50 to 150 nM, respectively.
The matching figures for `O=C(O)[C@H](CCOCCCCc1ccc2c(n1)NCCC2)NC(=O)C1(c2cccc(C(F)(F)F)c2)CCOCC1` [Compound 86, O-(4-(5,6,7,8-tetrahydro-1,8-naphthyridin-2-yl)butyl)-N-(4-(3-(trifluoromethyl)phenyl)tetrahydro-2H-pyran-4-carbonyl)-L-homoserine]: less than 50 nM, greater than 500 nM and less than 50 nM.
For `COc1cccc(C2(C(=O)N[C@@H](CCOCCCCc3ccc4c(n3)NCCC4)C(=O)O)CCOCC2)c1` [Compound 87, N-(4-(3-methoxyphenyl)tetrahydro-2H-pyran-4-carbonyl)-O-(4-(5,6,7,8-tetrahydro-1,8-naphthyridin-2-yl)butyl)-L-homoserine], the IC50 at human integrin αVβ1 is less than 50 nM; on human integrin αVβ6 it was greater than 500 nM; on human integrin αVβ8, less than 50 nM.
For `O=C(O)[C@H](CCOCCCCc1ccc2c(n1)NCCC2)NC(=O)C1(c2cccc(F)c2)CCOCC1` [Compound 88, N-(4-(3-fluorophenyl)tetrahydro-2H-pyran-4-carbonyl)-O-(4-(5,6,7,8-tetrahydro-1,8-naphthyridin-2-yl)butyl)-L-homoserine], the IC50 on human integrin αVβ1 is less than 50 nM; at human integrin αVβ6, greater than 500 nM; on human integrin αVβ8 it was less than 50 nM.
Consider `O=C(O)[C@H](CCOCCCCc1ccc2c(n1)NCCC2)NC(=O)C1(c2cccc(Cl)c2)CCOCC1` [Compound 89, N-(4-(3-chlorophenyl)tetrahydro-2H-pyran-4-carbonyl)-O-(4-(5,6,7,8-tetrahydro-1,8-naphthyridin-2-yl)butyl)-L-homoserine], for which the values for the IC50 on human integrin αVβ1, on human integrin αVβ6 and on human integrin αVβ8 were less than 50 nM, greater than 500 nM and less than 50 nM, respectively.
For the compound `O=C(O)[C@H](CCOCCCCc1ccc2c(n1)NCCC2)NC(=O)C1(n2c(=O)ccc3ccccc32)CC1` [Compound 90, N-(1-(2-oxoquinolin-1(2H)-yl)cyclopropane-1-carbonyl)-O-(4-(5,6,7,8-tetrahydro-1,8-naphthyridin-2-yl)butyl)-L-homoserine], the IC50 at human integrin αVβ1 is 50 to 150 nM; at human integrin αVβ6 it was greater than 500 nM; on human integrin αVβ8, less than 50 nM.
The matching figures for `O=C(O)[C@H](CCOCCCCc1ccc2c(n1)NCCC2)NC(=O)C1(n2c(C3CC3)cccc2=O)CC1` [Compound 91, N-(1-(6-cyclopropyl-2-oxopyridin-1(2H)-yl)cyclopropane-1-carbonyl)-O-(4-(5,6,7,8-tetrahydro-1,8-naphthyridin-2-yl)butyl)-L-homoserine]: less than 50 nM, greater than 500 nM and 50 to 150 nM.
Taken in the same sequence, the figures for `COc1cccc(=O)n1C1(C(=O)N[C@@H](CCOCCCCc2ccc3c(n2)NCCC3)C(=O)O)CC1` [Compound 92, N-(1-(6-methoxy-2-oxopyridin-1(2H)-yl)cyclopropane-1-carbonyl)-O-(4-(5,6,7,8-tetrahydro-1,8-naphthyridin-2-yl)butyl)-L-homoserine] were 50 to 150 nM, greater than 500 nM and 50 to 150 nM.
Taken in the same sequence, the figures for `O=C(O)[C@H](CCOCCCCc1ccc2c(n1)NCCC2)NC(=O)C1(n2c(F)cccc2=O)CC1` [Compound 93, N-(1-(6-fluoro-2-oxopyridin-1(2H)-yl)cyclopropane-1-carbonyl)-O-(4-(5,6,7,8-tetrahydro-1,8-naphthyridin-2-yl)butyl)-L-homoserine] were less than 50 nM, greater than 500 nM and less than 50 nM.
For the compound `O=C(O)[C@H](CCOCCCCc1ccc2c(n1)NCCC2)NC(=O)C1(n2c(Br)cccc2=O)CC1` [Compound 94, N-(1-(6-bromo-2-oxopyridin-1(2H)-yl)cyclopropane-1-carbonyl)-O-(4-(5,6,7,8-tetrahydro-1,8-naphthyridin-2-yl)butyl)-L-homoserine], the IC50 was less than 50 nM on human integrin αVβ1, greater than 500 nM on human integrin αVβ6 and less than 50 nM at human integrin αVβ8.
Consider `NC(=O)c1cccc(F)c1C1(C(=O)N[C@@H](CCOCCCCc2ccc3c(n2)NCCC3)C(=O)O)CC1` [Compound 95, N-(1-(2-carbamoyl-6-fluorophenyl)cyclopropane-1-carbonyl)-O-(4-(5,6,7,8-tetrahydro-1,8-naphthyridin-2-yl)butyl)-L-homoserine], for which the half-maximal inhibitory concentration (IC50) at human integrin αVβ1 was 50 to 150 nM; on human integrin αVβ6 it was greater than 500 nM; on human integrin αVβ8, 50 to 150 nM.
Turning to `O=C(O)[C@H](CCOCCCCc1ccc2c(n1)NCCC2)NC(=O)C1(C(F)(F)F)CCN(CC(F)(F)F)CC1` [Compound 96, O-(4-(5,6,7,8-tetrahydro-1,8-naphthyridin-2-yl)butyl)-N-(1-(2,2,2-trifluoroethyl)-4-(trifluoromethyl)piperidine-4-carbonyl)-L-homoserine], the concentration for half-maximal inhibition (IC50) is less than 50 nM at human integrin αVβ1, greater than 500 nM at human integrin αVβ6 and less than 50 nM at human integrin αVβ8.
For `O=C(N[C@@H](CCOCCCCc1ccc2c(n1)NCCC2)C(=O)O)c1ccn(-c2ccccc2)n1` [Compound 97, N-(1-phenyl-1H-pyrazole-3-carbonyl)-O-(4-(5,6,7,8-tetrahydro-1,8-naphthyridin-2-yl)butyl)-L-homoserine], the half-maximal inhibitory concentration (IC50) at human integrin αVβ1 lay in the range of 50 to 150 nM; on human integrin αVβ6, 250 to 500 nM; at human integrin αVβ8 it was 250 to 500 nM.
Regarding `O=C(N[C@@H](CCOCCCCc1ccc2c(n1)NCCC2)C(=O)O)c1cnn(-c2ccccc2)c1` [Compound 98, N-(1-phenyl-1H-pyrazole-4-carbonyl)-O-(4-(5,6,7,8-tetrahydro-1,8-naphthyridin-2-yl)butyl)-L-homoserine], the IC50 on human integrin αVβ1 was 50 to 150 nM; at human integrin αVβ6 it was greater than 500 nM; at human integrin αVβ8, 250 to 500 nM.
Taken in the same sequence, the figures for `O=C(N[C@@H](CCOCCCCc1ccc2c(n1)NCCC2)C(=O)O)c1ccnn1-c1ccccc1` [Compound 99, N-(1-phenyl-1H-pyrazole-5-carbonyl)-O-(4-(5,6,7,8-tetrahydro-1,8-naphthyridin-2-yl)butyl)-L-homoserine] were less than 50 nM, less than 50 nM and 50 to 150 nM.
Taken in the same sequence, the figures for `O=C(O)[C@H](CCOCCCCc1ccc2c(n1)NCCC2)NC(=O)C1(C(F)(F)F)CCOCC1` [Compound 100, O-(4-(5,6,7,8-tetrahydro-1,8-naphthyridin-2-yl)butyl)-N-(4-(trifluoromethyl)tetrahydro-2H-pyran-4-carbonyl)-L-homoserine] were less than 50 nM, 50 to 150 nM and less than 50 nM.
The matching figures for `Cc1ncnc(Cl)c1C1(C(=O)NC(CCOCCCCc2ccc3c(n2)NCCC3)C(=O)O)CC1` (stereo not drawn) [Compound 101, N-(1-(4-chloro-6-methylpyrimidin-5-yl)cyclopropane-1-carbonyl)-O-(4-(5,6,7,8-tetrahydro-1,8-naphthyridin-2-yl)butyl)homoserine]: less than 50 nM, greater than 500 nM and less than 50 nM.
With `Cc1ncnc(O)c1C1(C(=O)N[C@@H](CCOCCCCc2ccc3c(n2)NCCC3)C(=O)O)CC1` [Compound 102, N-(1-(4-hydroxy-6-methylpyrimidin-5-yl)cyclopropane-1-carbonyl)-O-(4-(5,6,7,8-tetrahydro-1,8-naphthyridin-2-yl)butyl)-L-homoserine], the IC50 on human integrin αVβ1 was 50 to 150 nM; on human integrin αVβ6, greater than 500 nM; at human integrin αVβ8 it was 50 to 150 nM.
